The values that follow come from PubChem BioAssay (NCI).

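Cells were grown in 96-well plates and exposed to each compound for 48 hours at five concentrations; endpoints were interpolated linearly between bracketing concentrations, or set to the highest concentration if not reached. The concentration for 50% growth inhibition is given as GI50. TGI: total growth inhibition.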

What all share (assay): growth of human tumour cells (NCI), 48 h
In assay [1] the test system is NCI/ADR-RES ovarian.
Assay [2] has as its system KM12 colon.
Assay [3] deals with SK-OV-3 ovarian.
Assay [4] has as its system SF-295 CNS.
The test system of assay [5] is IGROV1 ovarian.
Assay [6] deals with HOP-92 NSCLC.
Assay [7] relates to T-47D breast.
Assay [8] relates to RPMI-8226 leukemia.
Assay [9] concerns DLD-1 colon.

As for `Nc1nc(Nc2ccccc2)c2ncn(Cc3cc4c(cc3Br)OCO4)c2n1`, the GI50 in [1] is 0.0565 µM; in [2], 0.0418 µM; in [3], 0.0373 µM; in assay [4], 0.037 µM; in [5] it was 0.105 µM; in assay [6] it was 0.0651 µM. The GI50 in [7] is below 0.01 µM; in assay [8], 0.0497 µM. In addition, the TGI was above 37.5 µM in [1]; 21 µM in assay [2]; 2.36 µM in [3]; 7.27 µM in assay [4]; 60.4 µM in [5]; 20.7 µM in [6]. The TGI in assay [7] is 21.4 µM; in assay [8], above 52.7 µM.

Turning to `Cc1c[n+](Cc2ccc3ccccc3c2)cn1Cc1ccc2ccccc2c1`, the GI50 is above 100 µM in [1]; 1.65 µM in [2]; 2.16 µM in [3]; 1.95 µM in assay [4]; 1.46 µM in assay [5]; 0.448 µM in [6]. In addition, the GI50 was 0.371 µM in assay [7] and 0.595 µM in assay [8]. The TGI is above 100 µM in assay [1]; 3.1 µM in assay [2]; 6.12 µM in [3]; 5.56 µM in assay [4]; 3.75 µM in assay [5]; 2.02 µM in assay [6]. Also, the TGI in [7] turned out to be 2.75 µM; in assay [8], 2.49 µM.

Consider `CC(C)c1ccccc1S(=O)c1ccccc1C(C)(C)O` (stereo not drawn), for which the TGI in assay [1] is above 100 µM; in [2] it was above 100 µM; in assay [3], above 100 µM; in assay [4], 48.1 µM; in assay [5], above 100 µM; in [6], above 100 µM. The TGI in [7] and in assay [8] was above 100 µM each time.

For `COc1ccc(/C=c2/sc3n(c2=O)C(c2ccc(OC)c(OC)c2)C2=C(N=3)c3cc(F)ccc3OC2)cc1` (stereo not drawn), the GI50 in assay [1] is 18.7 µM; in assay [2], 18.1 µM; in assay [3], above 57 µM; in assay [4], 15.7 µM; in assay [5] it was 9.71 µM; in assay [6], 14.3 µM. Moreover, the GI50 in assay [7] is 4.42 µM; in assay [8] it was above 25 µM. Moreover, the TGI was 87.4 µM in assay [1]; above 79.2 µM in assay [2]; above 100 µM in [3]; 54.1 µM in assay [4]; above 26.5 µM in assay [5]; above 65 µM in assay [6]. Besides, the results for the TGI in assay [7] and in [8] were 39.6 µM and 99.7 µM, respectively.

`COc1cc(/C=C2\C(=O)Nc3ccc(F)cc32)cc(OC)c1OC`: the GI50 in assay [1] is 18.9 µM; in assay [2] it was 26.2 µM; in assay [3], above 100 µM; in assay [4] it was above 100 µM; in [5], 8.44 µM; in assay [6], 5.07 µM. In addition, the GI50 is 7.2 µM in [7] and 56.8 µM in [8]. In addition, the TGI in assay [1] is above 100 µM; in [2], above 100 µM; in assay [3] it was above 100 µM; in assay [4], above 100 µM; in assay [5] it was above 100 µM; in [6], 42.8 µM. The TGI in assay [7] and in assay [8] was above 100 µM throughout.

As to `O=C(O)c1c(-c2nccc3ccccc23)[nH]c(-c2ccccc2)c1S(=O)(=O)O`, the TGI in assay [1], in assay [2], in assay [3], in assay [4], in assay [5] and in assay [6] was above 100 µM throughout. Further, the TGI in assay [7] and in assay [8] was above 100 µM in each case.

Take `O=C1/C(=C\c2cccn2Cc2ccccc2)c2ccccc2N1c1c(Cl)cccc1Cl`: the GI50 in [1] is above 100 µM; in [2], 0.866 µM; in assay [3] it was above 100 µM; in assay [4], above 100 µM; in assay [5] it was 0.551 µM; in assay [6], 1.52 µM. Further, the GI50 in assay [7] is 0.266 µM; in assay [8], 1.3 µM. For the same compound, the TGI in assay [1] was above 100 µM; in assay [2], above 53.4 µM; in assay [3] it was above 100 µM; in assay [4], above 100 µM; in assay [5] it was above 100 µM; in assay [6] it was 28.8 µM. For the same compound, the values for the TGI in [7] and in [8] were 1.93 µM and above 100 µM, respectively.

As to `O=C(CSc1nnc(-c2ccccc2NC(=O)C(F)(F)F)c(=O)[nH]1)NC(=O)Nc1ccccc1`, the TGI in [2] was above 100 µM; in assay [3], above 100 µM; in [4] it was above 100 µM; in assay [5] it was above 100 µM; in [6] it was above 100 µM; in assay [9] it was 44.7 µM.

On to `Nc1nc(Br)nc2c1ncn2C1CC(O)C(CO)O1` (stereo not drawn), for which the GI50 in assay [1] is 0.384 µM; in assay [2], above 100 µM; in assay [3], above 100 µM; in assay [4] it was 18.4 µM; in assay [6], 2.79 µM; in assay [7] it was above 60.7 µM. The GI50 in assay [8] is above 25 µM. In addition, the TGI is above 100 µM in [1]; above 100 µM in assay [2]; above 100 µM in assay [3]; above 76.4 µM in [4]; above 69.4 µM in [5]; above 100 µM in assay [6]. The TGI in assay [7] and in assay [8] was above 100 µM each time.

In the case of `CCN(CC)CCOc1ccc(/C(=C(\C)c2ccc(F)c(OC)c2)c2ccc(Cl)cc2)cc1`, the GI50 was 2.36 µM in assay [1]; 2.27 µM in assay [2]; 2.97 µM in [3]; 2.61 µM in assay [4]; 2.45 µM in [5]; 1.3 µM in [6]. Also, the results for the GI50 in [7] and in [8] were 2.41 µM and 2.6 µM, respectively. The TGI in [1] came out at 4.69 µM; in [2], 4.73 µM; in assay [3], 5.73 µM; in [4] it was 4.98 µM; in assay [5], 5.4 µM; in assay [6], 3.68 µM. The TGI in assay [7] amounted to 5.86 µM; in assay [8], 6.3 µM.
